Test results: patent US7662547B2, “Compositions and methods for detecting and treating HIV infections” (priority 2006, dated 2010)

Columns and labels:
[1] = tested on: LFA-1 activation; assay: LFA-1 activation staining (ICAM-1/Fc chimera, flow cytometry) of T cells activated by anti-CD3/CD28 bead; type: cell-based, human
Experimental: Half million CD4 T cells in 500 μl culture medium were treated with 5 μl of human IgG (Jackson Immuno Research, West Grove, Pa.) to block non-specific staining. Cells were stained with 10 μl (50 μg/ml) of human ICAM-1 Fc chimera (R&D System, Minneapolis, Minn.) for 20 min at 4° C. Cells were washed and blocked by 5 μl of mouse IgG (Jackson ImmunoResearch, West Grove, Pa.), followed by the addition of 10 μl of FITC labeled mouse anti-human Fc (Jackson ImmunoResearch, West Grove, Pa.), and incubated for 20 min at 4° C. Cells were finally washed and resuspended in 500 μl of 1% paraformaldehyde for flow cytometry.
Thus, the effect of Jas on T cell activity was determined. FIG. 3A illustrates inhibition of HIV-1 latent infection by Jas. Effects of Jas on LFA-1 activation also were tested. Jas treated or untreated resting T cells were activated by anti-CD3/CD28 bead and stained with human ICAM-1/Fc chimera and analyzed by flow cytometer. The effects of Jas on IL-2 secretion also were measured. […] Cells were treated with Jas for 2 hours, washed, infected with HIV-1 for 5 days, then activated by anti-CD3/CD28 bead. […] Following infection, cellular DNA was PCR amplified for viral late DNA and β-actin pseudogene. Cells were pre-activated with PHA plus IL-2, then treated and infected as in FIG. 3A. […] CEM-SS cell were treated and infected as in FIG. 3A. […]

[2] = tested on: IL-2 secretion; assay: IL-2 ELISA of cell culture supernatant after T cell activation; type: cell-based, human
Experimental: IL-2 release into cell culture supernatant was detected by a human IL-2 ELISA development kit (PeproTech, Rocky Hill, N.J.) according to the manufacture's instruction. Briefly, each well of a plate was coated with 100 μl of capture antibody (1 μg/ml) and incubated overnight at room temperature, then washed and blocked with 300 μl of blocking solution for one hour at room temperature. Samples in plates were incubated for 1 hour at 37° C., then washed and incubated with 100 μl of detection antibody (0.5 μg/ml) for 1 hour at 37° C. Plates were washed and incubated with 100 μl of the avidin-peroxidase conjugate (1:2000 dilution) for 30 minutes at room temperature followed by washing and incubation with 100 μl of Tetramethylbenzidine (TMB) substrate buffer. Plates were kinetically read using ELx808 automatic microplate reader (Bio-Tek Instruments, Inc. Winooski, Vt.) at 630 nm.

[3] = tested on: T cells; assay: Cell cycle analysis of T cells; type: cell-based, human
[4] = tested on: F-actin; assay: Competitive binding of phalloidin to F-actin; conditions: 120 nM

## C/C1=C\[C@H](C)C[C@H](C)OC(=O)C[C@H](c2ccc(O)cc2)NC(=O)[C@@H](Cc2c(Br)[nH]c3ccccc23)N(C)C(=O)[C@H](C)NC(=O)[C@@H](C)C1 [Jas, Jasplakinolide]
[1]; 120 nM and below
  inhibition of LFA-1 activation: no detectable inhibition
[1]; 3 1μM Jas
  inhibition of LFA-1 activation: greatly inhibited
[2]; 120 nM and below
  effect on IL-2 secretion: no significant effect
[2]; 600 nM and above
  effect on IL-2 expression following T cell activation: inhibited IL-2 expression
[3]; 120 nM
  cell cycle arrest: no cell cycle arrest
[3]; 3μM
  cell cycle arrest: arrested cells in S phase
[4]
  inhibition of subsequent competitive binding of phalloidin to F-actin: significantly inhibited
